Laboratory results as given in patent publication US20230277680A1, “CONJUGATE OF A SINGLE DOMAIN ANTIBODY, A SAPONIN AND AN EFFECTOR MOLECULE, PHARMACEUTICAL COMPOSITION COMPRISING THE SAME, THERAPEUTIC USE OF SAID PHARMACEUTICAL COMPOSITION” (SAPREME TECHNOLOGIES B.V., priority 2020, published 2023).

How the values were obtained:
A431 cells = assay: Cell viability (MTS) assay, cell killing; assay type: cell-based, human; conditions: read-out: [SO1861] IC50 cell killing, + fixed 10 μM cetuximab-saporin, calculated on concentration SO1861
Experimental: (§1) After treatment the cells were incubated for 72 hr at 37° C. before the cell viability was determined by a MTS-assay, performed according to the manufacturer's instruction (CellTiter 96® AQueous One Solution Cell Proliferation Assay, Promega). Briefly, the MTS solution was diluted 20× in DMEM without phenol red (PAN-Biotech GmbH) supplemented with 10% FBS. The cells were washed once with 200 μL/PBS well, after which 100 μL diluted MTS solution was added/well. The plate was incubated for approximately 20-30 minutes at 37° C. Subsequently, the OD at 492 nm was measured on a Thermo Scientific Multiskan FC plate reader (Thermo Scientific). For quantification the background signal of ‘medium only’ wells was subtracted from all other wells, before the cell viability percentage of treated/untreated cells was calculated, by dividing the background corrected signal of treated wells over the background corrected signal of the untreated wells (×100). […]
(§2) After treatment the cells were incubated for 72 hr at 37° C. before the cell viability was determined by a MTS-assay, performed according to the manufacturer's instruction (CellTiter 96® AQueous One Solution Cell Proliferation Assay, Promega). […] Subsequently, the optical density at 492 nm was measured on a Thermo Scientific Multiskan FC plate reader (Thermo Scientific). […]

SK-BR-3 cells = assay: Cell viability (MTS) assay, cell killing; assay type: cell-based, human; conditions: read-out: [SO1861] IC50 cell killing; SKBR3; + fixed 1.5 μM EGF-dianthin
Experimental: as §1, §2

SMILES: CC(=O)O[C@H]1[C@H](O[C@@H]2OC[C@@H](O)[C@H](O)[C@H]2O)[C@@H](O)[C@H](O[C@@H]2[C@H](O)[C@@H](O[C@@H]3O[C@@H](C)[C@H](O[C@@H]4OC[C@@H](O)[C@H](O[C@@H]5OC[C@@H](O)[C@H](O)[C@H]5O)[C@H]4O)[C@@H](O)[C@H]3O)[C@H](OC(=O)[C@]34CCC(C)(C)C[C@H]3C3=CC[C@@H]5[C@@]6(C)CC[C@H](O[C@H]7O[C@H](C(=O)O)[C@@H](O)[C@H](O[C@@H]8OC[C@@H](O)[C@H](O)[C@H]8O)[C@H]7O[C@@H]7O[C@H](CO)[C@H](O)[C@H](O)[C@H]7O)[C@@](C)(C=O)[C@@H]6CC[C@@]5(C)[C@]3(C)C[C@H]4O)O[C@@H]2C)O[C@@H]1C [SO1861]
- IC50 (A431 cells): 600 nM
- IC50 (SK-BR-3 cells): 800 nM
